Data from patent US9718858B2, “Tunable control of protein degradation in synthetic and endogenous bacterial systems” (priority 2013, dated 2017).

Tests used:
mf-Lon [1] = experiment: E. coli-based GFP-pdt degradation platform, Example 2 (genomically integrated codon-optimized mf-Lon, flow cytometry); format: cell-based; settings: for 50 ng/ml ATc (GFP fluorescence, untagged GFP set to 100) / 0 ng/ml ATc (GFP fluorescence, untagged GFP set to 100): GFP-pdt fusion in E. coli, flow cytometry, 6 hours; for 50 ng/ml ATc (GFP fluorescence, untagged GFP set to 100): mf-Lon induced with 50 ng/ml ATc; for 0 ng/ml ATc (GFP fluorescence, untagged GFP set to 100): no mf-Lon induction
Procedure: Strains and Reagents. The E. coli K-12 derivative strain MG1655Pro (F-, λ-, Spr, lacI, tetR) published previously^2,42 was used as the wild-type strain in all cases except for the synthetic toggle experiments where the inventors used MG1655ΔlacIΔaraBAD, prepared as described in the herein. Unless otherwise noted, E. coli were grown in Luria broth (LB) at 30° C. with shaking and mf-Lon expression was induced with 50 ng/ml ATc. L. lactis strain […] was used for all L. lactis experiments and grown in M17 broth containing 0.5% glucose. Antibiotics carbenicillin (100 ug/ml), kanamycin (30 ug/ml) and erythromycin (10 ug/ml) were added to the media when appropriate. All plasmids and strain mutations were verified by sequencing, and plasmid maps will be deposited in GenBank.
E. coli-Based Degradation Platform. The mf-lon gene was codon optimized for E. coli expression, placed under control of the PLtetO promoter, and integrated into the lacZ locus along with 5′ and 3′ transcriptional terminators to block unwanted mf-Lon expression from any proximal genomic promoters. The GFP variant GFPmut3b was used for all GFP expression, and GFP-pdt and mCherry-pdt variants were expressed from the constitutive PlacIq promoter on a high-copy plasmid containing the ColE1 origin and the kanamycin resistance cassette kanR.
Flow Cytometry. Data for GFP and mCherry degradation dynamics were collected using an LSRFortessa cell analyzer equipped with a High Throughput Sampler (BD Biosciences), and data for the synthetic toggle switch were collected using a FACSArian flow cytometer (BD Biosciences). For each measurement, cells were fixed in 1% paraformaldehyde (PFA), held at 4° C. for up to 5 days, and then diluted 1:10 in PBS for analysis. At least 5,000 cells were collected for each measurement and FloJo (Treestar) was used for data analysis. […]

mf-Lon [2] = experiment: GFP-pdt degradation platform in E. coli, Example 1 (plasmid-borne aTc-inducible mf-Lon); format: cell-based; settings: for Fold Degradation: 0 ng/ml aTc versus 50 ng/ml aTc; for 50 ng/ml aTc (GFP fluorescence, untagged GFP set to 100) / 0 ng/ml aTc (GFP fluorescence, untagged GFP set to 100): GFP-pdt fusion in E. coli, 10 h; for 50 ng/ml aTc (GFP fluorescence, untagged GFP set to 100): mf-Lon induced with 50 ng/ml aTc; for 0 ng/ml aTc (GFP fluorescence, untagged GFP set to 100): no mf-Lon induction
Procedure: Strains, Plasmids and Reagents. The E. coli K-12 derivative strain MG1655Pro (F-, λ-, Sp^r, lacI, tetR) published previously^1,46 was used as the wild-type strain in all cases except for the synthetic toggle experiments where MG1655ΔlacIΔaraBAD was prepared and used as described herein. Unless otherwise noted, bacteria were grown in Luria broth (LB) at 30° with shaking and mf-Lon expression was induced with 50 ng/ml aTc. Antibiotics carbenicillin (100 ug/ml) and kanamycin (30 ug/ml) were added to the media when appropriate. All plasmids and strain mutations were verified by sequencing, and plasmid maps will be deposited in GenBank.
GFP Degradation Platform. The GFP variant GFPmut3b^47 was used for all GFP expression. GFP-pdt variants were expressed from the constitutive PlacIq promoter^48 on a high-copy plasmid containing the ColE1 origin and a kanamycin-resistance cassette. The PLtetO promoter was used to express mf-Lon on a medium-copy plasmid containing the P15A origin and ampicillin-resistance cassette.
Flow Cytometry. GFP expression was measured using a […] (BD BIOSCIENCES) flow cytometer with the following voltage settings: FCS, 340; SCS, 270; FITC (for GFP), 520; mCherry, 615. At least 10,000 cells were collected for each measurement and FloJo was used for data analysis.
Plate Fluorimetry and Optical Density. Fluorescence and optical density measurements were made with a SPECTRAMAX M5 microplate reader (MOLECULAR DEVICES) using excitation and emission wavelengths of 488 nm and 520 nm, respectively, with an emission filter cutoff at 515 nm Optical density was measured at 600 nm (0D600). All measurements were made in 200 μl in 96-well clear bottom plates.
PDT Mutagenesis Screens. Polymerase chain reaction (PCR) primers containing randomized nucleotides were used to mutagenize the indicated pdt codons. Plasmids containing the mutagenized tags fused to gfp were co-transformed with the mf-Lon expression plasmid into MG1655Pro. Transformants were picked into 96-well plates, grown to mid-log phase, diluted 1:20 into media with and without 50 ng/ml aTc and measured by plate reader after 10 h growth.

[3] = tested on: synthetic toggle switch (LacI/TetR); experiment: Protease-driven control of a synthetic toggle switch, Example 2; format: cell-based, E. coli
Procedure: Flow Cytometry. Data for GFP and mCherry degradation dynamics were collected using an LSRFortessa cell analyzer equipped with a High Throughput Sampler (BD Biosciences), and data for the synthetic toggle switch were collected using a FACSArian flow cytometer (BD Biosciences). For each measurement, cells were fixed in 1% paraformaldehyde (PFA), held at 4° C. for up to 5 days, and then diluted 1:10 in PBS for analysis. At least 5,000 cells were collected for each measurement and FloJo (Treestar) was used for data analysis.
Synthetic Toggle Switch. The plasmid pKDL071R8, based on pKDL07143, was altered to contain a weakened tetR ribosome binding site (RBS) to enhance toggle bistability in the minimal media conditions used. This plasmid served as the parental strain for all LacI-pdt toggle switch experiments. Pdt variants were fused to lad by overlapping PCR and cloned into pKDL071R8 using SacII and BsrGI. The arabinose inducible PBAD promoter was used to express mf-Lon from a second plasmid. Cells containing the toggle switch and mf-Lon expression plasmids were grown in 200 μl in 96-well round bottom plates at 37° C. in M9 minimal media containing 0.2% glycerol and 0.05% casamino acids, and care was taken to maintain exponential growth throughout the experiment. […]

Substance	50 ng/ml ATc (GFP fluorescence, untagged GFP set to 100) (mf-Lon [1]) [%]	0 ng/ml ATc (GFP fluorescence, untagged GFP set to 100) (mf-Lon [1]) [%]	Fold Degradation (mf-Lon [2])	50 ng/ml aTc (GFP fluorescence, untagged GFP set to 100) (mf-Lon [2]) [%]	0 ng/ml aTc (GFP fluorescence, untagged GFP set to 100) (mf-Lon [2]) [%]	drop in GFP following mf-Lon induction (mf-Lon [2]; from initial (steady-state) levels) [fold]	GFP-pdt levels compared with untagged GFP (mf-Lon [2]; late-log and stationary phase, constitutive expression, no mf-Lon)	GFP-pdt remaining, % of its initial levels after mf-Lon expression (mf-Lon [1]) [%]	toggle switching relative to LacI-pdt#3 [3]
pdt#3E: Example 2: aa13-15 PDG, aa24-27 RRRV, SEQ ID NO 115 (AANKNEENTNEVPDGMLNAGQANRRRV)	87	112	–	–	–	–	–	–	–
pdt#3D: Example 2: aa13-15 APN, aa24-27 RRRV, SEQ ID NO 19 (AANKNEENTNEVAPNMLNAGQANRRRV)	66	104	–	–	–	–	–	–	–
pdt#1 (AANKNEENTNEVPTFMLNAGQANRLQL)	1	40	24.6	0.9	21.8	–	–	–	–
AANKNEENTNEVPTFMLNAGQANYAFA [pdt, reference compound]	1	50	20.7	0.6	12.5	21	markedly lower	3	–
pdt#3B: Example 2: aa13-15 RAI, aa24-27 RRRV, SEQ ID NO 18 (AANKNEENTNEVRAIMLNAGQANRRRV)	38	100	–	–	–	–	–	–	provided temporal control over the circuit switch rate
pdt#3A: Example 2: aa13-15 FKL, aa24-27 RRRV, SEQ ID NO 114 (AANKNEENTNEVFKLMLNAGQANRRRV)	27	115	–	–	–	–	–	–	provided temporal control over the circuit switch rate
pdt#3C: Example 2: aa13-15 AQP, aa24-27 RRRV, SEQ ID NO 22 (AANKNEENTNEVAQPMLNAGQANRRRV)	48	107	–	–	–	–	–	–	–
